The values below come from US10155047B2, “Polymers having therapeutically active agents conjugated thereto, processes of preparing same and uses thereof” (Ramot at Tel-Aviv University Ltd., priority 2012, dated 2018).

Ends that are not written are not given here.

The test system of one data set is ES-2 cells. The experiment in a line: ES-2 proliferation after 7 minutes treatment, wash and 72 hours in medium. The class given is cell-based, human. Conditions: wash. Here is the method:
The effect of PGA, free PTX and the conjugates PGA-PTX, PGA-C3, and PGA-PTX-C3 on proliferation of ES-2 cells was evaluated after incubation of the cells with each treatment for 7 minutes, washing the cells and incubation in medium for 72 hours.
Short incubation time was selected since in the usual 72-hour incubation time, both the targeted and non-targeted conjugates would have had sufficient time to internalize into the cells. Under these experiment conditions, only the targeted conjugate remained bound to the cells, while non-targeted polymers or conjugates washed off, resulting in lower efficacy.

Data set [1] is described as follows: Zeta potential of conjugates. The class given is physicochemical. Conditions: Table 13.
In the next data set the test system is HUVECs. Briefly: Capillary-like tube formation assay of HUVECs. The class given is cell-based, human. Conditions: PTX-equivalent concentrations of 80 nM. The method, then: The surface of 24-well plates is coated with Cultrex® basement membrane (50 μl/well; 10 mg/ml) on ice and then allowed to polymerize at 37° C. for 30 minutes. HUVECs (3×10^4) are seeded on coated plates in the presence of conditioned media of tumor cells treated with the conjugate and its controls. After 8 hours of incubation (37° C.; 5% CO2), wells are imaged using bright-field technique (Nikon TE2000E inverted microscope integrated with Nikon DS5 cooled CCD camera by 4× objective).
The effect of the PGA-PTX-DOX conjugate (Route 1, see, FIG. 18) on capillary-like tube formation of HUVECs was tested and compared to that of the free drugs, each alone and in combination, to that of PGA alone and to that of a PGA-PTX conjugate.
The effect of PGA, free PTX (80 nM), free C3, the conjugate PGA-C3, and the conjugates PGA-PTX and PGA-PTX-C3, at PTX-equivalent concentrations of 80 nM, on capillary-like tube formation of human umbilical vein endothelial cells (HUVEC) was evaluated, in order to confirm that anti-angiogenic properties of PTX are maintained after conjugation.

The nature of data set [2]: Conjugate size by DLS analysis. The class given is physicochemical. Conditions: estimated from DLS analysis. From the text: Based on DLS analysis, it is estimated that the conjugate is 10 nm in size, which is a suitable size for selective distribution by the EPR effect.

Regarding “PGA-C3-PTX: PGA having attached C3 NCAM targeting peptide (SEQ ID NO:3) and PTX (GASKKPKRNIKA; also: conjugated to polyglutamic acid (PGA) and paclitaxel, site not given here)”, the inhibition of proliferation entry in the data set with ES-2 cells is on record as “inhibited the proliferation of ES-2 cells more than non-targeted PGA-PTX”. For the same substance, in data set [1], the Zeta potential is on record as −27.3 mV. Also, the “inhibition of capillary-like tube formation” value with HUVECs was “inhibited the formation of capillary-like tubes”. Moreover, in data set [2], the “size of the conjugate” value is recorded as 10 nm.
